For this experiment, the target named is T1, O-GlcNAc transferase (OGT) (Homo sapiens, UniProt O15294).
T1 sequence (O15294 323-1041): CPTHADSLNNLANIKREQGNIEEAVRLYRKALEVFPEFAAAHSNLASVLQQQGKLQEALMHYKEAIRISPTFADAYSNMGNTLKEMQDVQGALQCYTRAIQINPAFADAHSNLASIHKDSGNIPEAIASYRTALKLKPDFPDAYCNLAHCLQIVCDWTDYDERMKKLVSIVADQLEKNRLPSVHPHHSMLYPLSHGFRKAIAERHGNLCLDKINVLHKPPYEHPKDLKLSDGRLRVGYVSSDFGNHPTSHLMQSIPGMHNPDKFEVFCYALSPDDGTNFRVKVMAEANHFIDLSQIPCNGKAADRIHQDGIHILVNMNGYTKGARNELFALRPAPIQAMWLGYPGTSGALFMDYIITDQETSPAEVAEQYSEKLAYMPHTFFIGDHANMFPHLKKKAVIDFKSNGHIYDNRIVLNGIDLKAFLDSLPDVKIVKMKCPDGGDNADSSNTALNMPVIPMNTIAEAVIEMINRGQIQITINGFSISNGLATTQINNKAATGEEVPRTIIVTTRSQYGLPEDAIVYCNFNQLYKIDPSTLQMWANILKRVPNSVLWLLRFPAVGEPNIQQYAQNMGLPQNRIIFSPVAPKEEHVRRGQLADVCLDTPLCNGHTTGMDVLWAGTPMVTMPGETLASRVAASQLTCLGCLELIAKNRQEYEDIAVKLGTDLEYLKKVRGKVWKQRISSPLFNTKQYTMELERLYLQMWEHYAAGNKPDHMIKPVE
Description: microscale thermophoresis. Type of experiment: binding.

For the molecule `CC(=O)N[C@H]1[C@@H](OP(=O)(O)OP(=O)(O)OC[C@H]2O[C@@H](n3ccc(=O)[nH]c3=O)[C@H](O)[C@@H]2O)O[C@H](CO)[C@@H](O)[C@@H]1O` [UDP-GlcNAc], the Kd entry is “confirming that the method produced Kds for UDP and UDP-GlcNAc similar to those”.

Regarding `O=c1ccn([C@@H]2O[C@H](COP(=O)(O)OP(=O)(O)O)[C@@H](O)[C@H]2O)c(=O)[nH]1` [UDP], the Kd result is “confirming that the method produced Kds for UDP and UDP-GlcNAc similar to those”.

Source of the values: article PMC6261342 (Journal of the American Chemical Society, 2018).
